The supplement of paper PMC11451515

Key:
Conditions in all cases: 48 h
[1] = tested on: SEM cells; experiment: cell viability relative to DMSO control; higher = less cytotoxic
In short: (§1)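 Library compounds in DMSO were pin-dosed in an 11-point threefold series (47 μM to 0.79 nM) onto leukemia cells in 1536-well plates (5 μl). Plates held 500 cells/well of NOMO1 or SEM or 1000 cells/well of P12-Ichikawa, each adapted for at least four passages in each medium. Luminescence was read with CellTiter-Glo One after 48 h at 37°C. Viability means the per-plate percentage relative to DMSO wells, using cell-free wells as background.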

[2] = tested on: NOMO1; experiment: AUC of viability dose-response curve (% viability x log10 dose units); higher = less sensitive
In short: (§2)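 Seeding of medium-adapted leukemia cells was at 500 or 1000 cells/well in 1536-well plates, followed by 48 h at 37°C with library compounds in DMSO at 11 threefold doses from 47 μM to 0.79 nM. CellTiter-Glo One luminescence was normalised per plate to DMSO and cell-free wells and fitted as a four-parameter log-logistic function of log10 dose. Area under the curve was integrated by trapezoidal rule, with curves exceeding full viability scaled and curves failing quality control removed.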

[3] = tested on: P12-Ichikawa; experiment: as above
In short: as §2

[4] = tested on: SEM cells; experiment: as above
In short: as §2

[5] = tested on: NOMO1; experiment: cell viability relative to DMSO control; higher = less cytotoxic
In short: as §1

[6] = tested on: P12-Ichikawa; experiment: as above
In short: as §1

COc1ccccc1N1CCN(CCN(C(=O)C2CCCCC2)c2ccccn2)CC1
cell viability [%], [1]
Conditions | HPLM + 10% dialyzed FBS | RPMI 5 mM glucose + 10% FBS
0.000781 µM | 97.9 | 104
0.00234 µM | 121 | 111
0.00702 µM | 122 | 131
0.0211 µM | 112 | 123
0.0632 µM | 122 | 124
0.19 µM | 120 | 135
0.569 µM | 137 | 132
1.71 µM | 133 | 131
5.12 µM | 127 | 130
15.4 µM | 122 | 111
46.1 µM | 122 | 126

AUC of viability dose-response curve
Conditions | [2] | [3] | [4]
HPLM + 10% dialyzed FBS | 466 | 470 | 468
RPMI 5 mM glucose + 10% FBS | 469 | 472 | 467
RPMI 5 mM glucose + 10% dialyzed FBS | 468 | 473 | 472

CC(COc1ccccc1)N(CCCl)Cc1ccccc1 (centres undefined)
cell viability [%], [1]
Conditions | HPLM + 10% dialyzed FBS | RPMI 5 mM glucose + 10% FBS
0.000781 µM | 89.3 | 101
0.00234 µM | 102 | 123
0.00702 µM | 121 | 127
0.0211 µM | 110 | 120
0.0632 µM | 116 | 112
0.19 µM | 115 | 135
0.569 µM | 104 | 131
1.71 µM | 110 | 128
5.12 µM | 123 | 148
15.4 µM | 119 | 147
46.1 µM | 89.4 | 115

AUC of viability dose-response curve
Conditions | [2] | [3] | [4]
HPLM + 10% dialyzed FBS | 304 | 367 | 465
RPMI 5 mM glucose + 10% FBS | 280 | 372 | 451
RPMI 5 mM glucose + 10% dialyzed FBS | 316 | 380 | 469

Cc1c[nH]c(-c2cnc(NCCNc3ccc(C#N)cn3)nc2-c2ccc(Cl)cc2Cl)n1
cell viability [%]
Conditions | [1] | [5] | [6]
HPLM + 10% dialyzed FBS, 0.000781 µM | 62.7 | 72.9 | 75.2
HPLM + 10% dialyzed FBS, 0.00234 µM | 74.5 | 85.8 | 83.3
HPLM + 10% dialyzed FBS, 0.00702 µM | 62 | 94.2 | 80.6
HPLM + 10% dialyzed FBS, 0.0211 µM | 65.9 | 78.5 | 88.1
HPLM + 10% dialyzed FBS, 0.0632 µM | 65.2 | 87.3 | 87.7
HPLM + 10% dialyzed FBS, 0.19 µM | 70.5 | 101 | 88.9
HPLM + 10% dialyzed FBS, 0.569 µM | 45.3 | 89.5 | 88.3
HPLM + 10% dialyzed FBS, 1.71 µM | 71.5 | 93.3 | 94.3
HPLM + 10% dialyzed FBS, 5.12 µM | 19.6 | 80.3 | 91.2
HPLM + 10% dialyzed FBS, 15.4 µM | 26.8 | 67.5 | 91.1
HPLM + 10% dialyzed FBS, 46.1 µM | 2.9 | 57.7 | 16.4
RPMI 5 mM glucose + 10% FBS, 0.000781 µM | 74.9 | 66.4 | 67.6
RPMI 5 mM glucose + 10% FBS, 0.00234 µM | 93.6 | 79.7 | 82.5
RPMI 5 mM glucose + 10% FBS, 0.00702 µM | 70.9 | 83.7 | 77.7
RPMI 5 mM glucose + 10% FBS, 0.0211 µM | 87.6 | 80.7 | 78.7
RPMI 5 mM glucose + 10% FBS, 0.0632 µM | 85.2 | 96.7 | 79.9
RPMI 5 mM glucose + 10% FBS, 0.19 µM | 101 | 83.5 | 80.6
RPMI 5 mM glucose + 10% FBS, 0.569 µM | 66.9 | 77.5 | 78.9
RPMI 5 mM glucose + 10% FBS, 1.71 µM | 86.4 | 85.7 | 83.5
RPMI 5 mM glucose + 10% FBS, 5.12 µM | 34.9 | 76.5 | 75
RPMI 5 mM glucose + 10% FBS, 15.4 µM | 68.8 | 81.3 | 89.1
RPMI 5 mM glucose + 10% FBS, 46.1 µM | 4.99 | 64.2 | 24.8
RPMI 5 mM glucose + 10% dialyzed FBS, 0.000781 µM | 70.2 | 76.7 | 75.1
RPMI 5 mM glucose + 10% dialyzed FBS, 0.00234 µM | 80.9 | 80.8 | 85.3
RPMI 5 mM glucose + 10% dialyzed FBS, 0.00702 µM | 59.9 | 90.1 | 80.2
RPMI 5 mM glucose + 10% dialyzed FBS, 0.0211 µM | 67 | 89.2 | 80
RPMI 5 mM glucose + 10% dialyzed FBS, 0.0632 µM | 69.6 | 83.6 | 81
RPMI 5 mM glucose + 10% dialyzed FBS, 0.19 µM | 72.2 | 90.2 | 82.2
RPMI 5 mM glucose + 10% dialyzed FBS, 0.569 µM | 52.9 | 85.9 | 78.8
RPMI 5 mM glucose + 10% dialyzed FBS, 1.71 µM | 84 | 94.6 | 80.6
RPMI 5 mM glucose + 10% dialyzed FBS, 5.12 µM | 24 | 64.8 | 84.1
RPMI 5 mM glucose + 10% dialyzed FBS, 15.4 µM | 33.7 | 88 | 92.9
RPMI 5 mM glucose + 10% dialyzed FBS, 46.1 µM | 3.76 | 64.7 | 29.9

AUC of viability dose-response curve
Conditions | HPLM + 10% dialyzed FBS | RPMI 5 mM glucose + 10% FBS | RPMI 5 mM glucose + 10% dialyzed FBS
[2] | 398 | 381 | 396
[3] | 397 | 366 | 379

CN(Cc1cc(Br)cc(Br)c1N)C1CCCCC1
[1], HPLM + 10% dialyzed FBS
Conditions | cell viability [%]
0.000781 µM | 99.1
0.00234 µM | 122
0.00702 µM | 123
0.0211 µM | 130
0.0632 µM | 104
0.19 µM | 133
0.569 µM | 104
1.71 µM | 133
5.12 µM | 121
15.4 µM | 130
46.1 µM | 108

AUC of viability dose-response curve
Conditions | [2] | [3] | [4]
HPLM + 10% dialyzed FBS | 444 | 468 | 472
RPMI 5 mM glucose + 10% FBS | 464 | 471 | 461
RPMI 5 mM glucose + 10% dialyzed FBS | 448 | 470 | 441

CN(C)c1cc(NC(=O)CNC(C)(C)C)c(O)c2c1C[C@H]1C[C@H]3[C@H](N(C)C)C(O)=C(C(N)=O)C(=O)[C@@]3(O)C(O)=C1C2=O
AUC of viability dose-response curve
Conditions | [2] | [3] | [4]
HPLM + 10% dialyzed FBS | 466 | 457 | 452
RPMI 5 mM glucose + 10% FBS | 471 | 470 | 453
RPMI 5 mM glucose + 10% dialyzed FBS | 457 | 454 | 436

C[S+](=O)([O-])CCNCc1ccc(-c2ccc3ncnc(Nc4ccc(OCc5cccc(F)c5)c(Cl)c4)c3c2)o1
AUC of viability dose-response curve
Conditions | [2] | [3] | [4]
HPLM + 10% dialyzed FBS | 456 | 448 | 442
RPMI 5 mM glucose + 10% FBS | 451 | 453 | 418
RPMI 5 mM glucose + 10% dialyzed FBS | 444 | 429 | 440

COc1cc2c(Oc3ccc4[nH]c(C)cc4c3F)ncnc2cc1OCCCN1CCCC1
AUC of viability dose-response curve
Conditions | [2] | [3] | [4]
HPLM + 10% dialyzed FBS | 453 | 448 | 382
RPMI 5 mM glucose + 10% FBS | 452 | 449 | 380
RPMI 5 mM glucose + 10% dialyzed FBS | 463 | 448 | 356
